This passage reports MIC results from patent publication US20240425464A1, “Substituted Monohydrazides as Potent Antifungal Agents” (University of Kentucky Research Foundation, priority 2023, published 2024).

≈ marks a conversion by molar mass, not a printed value. Where two headings read alike, the source gives them in different places. Where only a bound is given, the exact number is not on record here.

Common to all, as to assay type: cell-based, Candida albicans
Assay [1] deals with C. albicans ATCC 10231 (strain A). Nature of the assay: MIC determination by in vitro antifungal assay (CLSI broth dilution). To be noted: strain A = C. albicans ATCC 10231, no visible growth, 48 h at 35° C. The procedure: (§1) 10 mg/mL stock solutions of compounds 1a-9j were prepared in dimethyl sulfoxide (DMSO) and were stored at −20° C. in the dark. The antifungal agent amphotericin B (AmB) was purchased from VWR (Radnor PA, USA). AmB was dissolved in DMSO at a final concentration of 5 mg/mL and was stored at −20° C., protected from light. Candida albicans American Type Culture Collection (ATCC) 10231 (strain A), C. albicans ATCC 64124 (B), and C. albicans ATCC MYA-2876 (C) were obtained from Utah State University. C. albicans ATCC 90819 (D), C. albicans ATCC MYA-2310 (E), C. albicans ATCC MYA-1237 (F), C. albicans ATCC MYA-1003 (G), Candida glabrata ATCC 2001 (H), Candida krusei ATCC 6258 (I), Candida parapsilosis ATCC 22019 (J), Cryptococcus neoformans ATCC MYA-895 (M), Aspergillus terreus ATCC MYA-3633 (N), and Aspergillus flavus ATCC MYA-3631 (0) were obtained from the American Type Culture Collection (ATCC; Manassas, VA, USA). Aspergillus nidulans ATCC 38163 (P) was obtained from University of Kentucky. Clinically derived Aspergillus fumigatus NRRL 163 (Q), A. fumigatus NRRL 5109 (R), and A. fumigatus NRRL 6113 (S) were obtained from Northern Regional Research Laboratory (NRRL). Candida auris 384 (K), C. auris 390 (L), and fungal strains 381-400 (including 10 C. auris (AR Bank #381-390), 3 Candida duobushaemulonii (AR Bank #391, AR Bank #392, and AR Bank #394), 2 Candida haemulonii (AR Bank #393 and AR Bank #395), 1 Kodameae ohmeri (AR Bank #396), 1 C. krusei (AR Bank #397), 1 Candida lusitaniae (AR Bank #398), and 2 Saccharomyces cerevisiae strains (AR Bank #399 and AR Bank #400)) were part of a larger fungal library from the AR Bank maintained by the Centers for Disease Control and Prevention (CDC; Atlanta, GA, USA). Filamentous fungi and yeasts were cultivated at 35° C. in RPMI 1640 medium (with L-glutamine, without sodium bicarbonate, Sigma-Aldrich, St. Louis, MO) buffered to a pH of 7.0 with 0.165 M morpholinepropanesulfonic acid (MOPS) buffer (Sigma-Aldrich). For cytotoxicity assays, HepG2 and the mouse macrophage cell line J774A.1 were obtained from University of Kentucky. The human embryonic kidney cell line, HEK-293, was bought from the ATCC. Mammalian cells were grown in Dulbecco's Modified Eagle's Medium (DMEM) (from VWR) with 10% fetal bovine serum (FBS) (from VWR) and 1% Pen/Strep (from ATCC). Cell lines were cultured at 37° C. with 5% CO2 and passaged by trypsinization with 0.05% trypsin: 0.53 mM EDTA (from Sigma-Aldrich).
(§2) The MIC values of compounds 1a-9j against yeast cells (strains A-P and 381-400) were determined in 96-well plates as described in the CLSI documents M27-A3 and M38-A2 with minor modifications.^2 A single colony of freshly prepared yeast cells was used to inoculate 5 mL of yeast extract peptone dextrose (YPD) broth prior to incubation overnight with shaking at 200 rpm at 35° C. From the actively growing yeast culture, 100 µL were then transferred to 900 μL of RPMI 1640 medium and re-adjusted to achieve OD600 of 0.12 (˜1×10^6 CFU/mL). The cell suspension was further diluted to achieve 1:100 in RPMI 1640 medium. 100 μL of cells were added to the wells of a 96-well microtiter plates that contained 100 µL of the compound solution to obtain concentrations of 0.06-31.3 μg/mL of compounds 1a-9j or AmB prior to incubation for 48 h at 35° C. […]
For orientation: Dilution methods test growth across graded concentrations, often in twofold steps.

In assay [2] the test system is C. albicans ATCC MYA-1237 (F). Nature of the assay: MIC determination by in vitro antifungal assay. To be noted: strain F = C. albicans ATCC MYA-1237(R). As for the experimental part: as §1, §2
The test system of assay [3] is C. albicans ATCC 90819 (D). The experiment in a line: MIC determination by in vitro antifungal assay. As for the experimental part: as §1, §2
Assay [4] deals with C. albicans ATCC MYA-2310 (E). Nature of the assay: MIC determination by in vitro antifungal assay. To be noted: strain E = C. albicans ATCC MYA-2310. The procedure: as §1, §2
For assay [5], the system named is C. albicans ATCC MYA-2876 (C). The experiment in a line: MIC determination by in vitro antifungal assay. Conditions: strain C = C. albicans ATCC MYA-2876(S). As for the experimental part: as §1, §2
Assay [6] concerns C. albicans ATCC 64124 (B). Nature of the assay: MIC determination by in vitro antifungal assay. The procedure: as §1, §2
The test system of assay [7] is C. albicans ATCC MYA-1003 (G). The experiment in a line: MIC determination by in vitro antifungal assay. Conditions: strain G = C. albicans ATCC MYA-1063(R) (footnote), MYA-1003 in text. As for the experimental part: as §1, §2
[8] abbreviates: strain D = C. albicans ATCC 90819(R).
The mark [9] stands for this setting: strain B = C. albicans ATCC 64124.
Setting [10] is: Candida albicans, ATCC10231, 48 h, read-out: MIC.
The mark [11] stands for this setting: Candida albicans, read-out: MIC.
The mark [12] stands for this setting: Candida albicans, ATCC90819, strain D = C. albicans ATCC 90819(R), read-out: MIC.
The mark [13] stands for this setting: Candida albicans, ATCC64124, strain B = C. albicans ATCC 64124, read-out: MIC.

For `O=C(NNc1ccc(Cl)cc1)c1nc(F)ccc1F` [Compound 8e], the MIC in assay [1] is given as 3.9 μg/mL^−1; in assay [2], above 31.3 μg/mL^−1; in assay [3] (setting [8]), 7.8 μg/mL^−1; in assay [4] it was 3.9 μg/mL^−1; in assay [5], 3.9 μg/mL^−1; in assay [6] (setting [9]), 7.8 μg/mL^−1. Further, in assay [7], the MIC amounted to 3.9 μg/mL^−1.

For the compound `O=C(NNc1cc(Cl)cc(Cl)c1)c1ccc(F)cc1F` [Compound 1j], the MIC in assay [1] (setting [10]) was 3.9 µg/mL (≈ 12.3 µM); in assay [2] (setting [11]), 15.6 µg/mL (≈ 49.2 µM); in assay [3] (setting [12]) it was above 31.3 µg/mL; in assay [4] (setting [11]), above 31.3 µg/mL; in assay [5] (setting [11]), above 31.3 µg/mL; in assay [6] (setting [13]), above 31.3 µg/mL. Further, the MIC in assay [7] (setting [11]) came to 7.8 µg/mL (≈ 24.6 µM).

On to `O=C(NNc1ccc(F)cc1)c1ccc(Br)cn1` [Compound 4d], for which the MIC in assay [1] (setting [10]) is 1.95 µg/mL (≈ 6.29 µM); in assay [2] (setting [11]), 7.8 µg/mL (≈ 25.2 µM); in assay [3] (setting [12]), 7.8 µg/mL (≈ 25.2 µM); in assay [4] (setting [11]), 7.8 µg/mL (≈ 25.2 µM); in assay [5] (setting [11]), 7.8 µg/mL (≈ 25.2 µM); in assay [6] (setting [13]) it was 7.8 µg/mL (≈ 25.2 µM). For the same compound, in assay [7] (setting [11]), the MIC worked out at 1.9 µg/mL (≈ 6.13 µM).

For `O=C(NNc1ccc(F)cc1)c1cccc(F)n1` [Compound 5d], the MIC worked out at 0.24 µg/mL (≈ 0.963 µM) in assay [1] (setting [10]); 1.95 µg/mL (≈ 7.82 µM) in assay [2] (setting [11]); 1.95 µg/mL (≈ 7.82 µM) in assay [3] (setting [12]); 3.9 µg/mL (≈ 15.6 µM) in assay [4] (setting [11]); 1.95 µg/mL (≈ 7.82 µM) in assay [5] (setting [11]); 0.98 µg/mL (≈ 3.93 µM) in assay [6] (setting [13]). In addition, the MIC in assay [7] (setting [11]) is 0.98 µg/mL (≈ 3.93 µM).

Turning to `O=C(NNc1ccc(F)cc1F)c1ncc(F)cc1F` [Compound 7g], the MIC came to 0.98 µg/mL (≈ 3.44 µM) in assay [1] (setting [10]); 3.9 µg/mL (≈ 13.7 µM) in assay [2] (setting [11]); 3.9 µg/mL (≈ 13.7 µM) in assay [3] (setting [12]); 3.9 µg/mL (≈ 13.7 µM) in assay [4] (setting [11]); 3.9 µg/mL (≈ 13.7 µM) in assay [5] (setting [11]); 3.9 µg/mL (≈ 13.7 µM) in assay [6] (setting [13]). For the same compound, the MIC in assay [7] (setting [11]) is 1.95 µg/mL (≈ 6.84 µM).

For `O=C(NNc1ccc(F)cc1)c1ccc(F)cc1F` [Compound 1d], the MIC in assay [1] (setting [10]) came to 0.49 µg/mL (≈ 1.84 µM); in assay [2] (setting [11]) it was 1.95 µg/mL (≈ 7.32 µM); in assay [3] (setting [12]), 1.95 µg/mL (≈ 7.32 µM); in assay [4] (setting [11]), 3.9 µg/mL (≈ 14.6 µM); in assay [5] (setting [11]), 7.8 µg/mL (≈ 29.3 µM); in assay [6] (setting [13]), 7.8 µg/mL (≈ 29.3 µM). Further, the MIC in assay [7] (setting [11]) came out at 1.95 µg/mL (≈ 7.32 µM).

For `COc1ccc(NNC(=O)c2cccc(Br)n2)cc1` [Compound 6f], the MIC in assay [1] (setting [10]) turned out to be 1.95 µg/mL (≈ 6.05 µM); in assay [2] (setting [11]), 0.98 µg/mL (≈ 3.04 µM); in assay [3] (setting [12]), 3.9 µg/mL (≈ 12.1 µM); in assay [4] (setting [11]), 3.9 µg/mL (≈ 12.1 µM); in assay [5] (setting [11]) it was 1.95 µg/mL (≈ 6.05 µM); in assay [6] (setting [13]), 3.9 µg/mL (≈ 12.1 µM). For the same compound, the MIC in assay [7] (setting [11]) came out at 3.9 µg/mL (≈ 12.1 µM).

For the compound `O=C(NNc1cccc(F)c1)c1ncc(F)cc1F` [Compound 7a], the MIC in assay [1] amounted to 0.24 μg/mL^−1; in assay [2], 3.9 μg/mL^−1; in assay [3] (setting [8]), 3.9 μg/mL^−1; in assay [4], 1.95 μg/mL^−1; in assay [5], 1.95 μg/mL^−1; in assay [6] (setting [9]), 0.98 μg/mL^−1. The compound further showed an MIC in assay [7] of 1.95 μg/mL^−1.

For `COc1ccc(NNC(=O)c2ccc(F)cn2)cc1` [Compound 3f], the MIC in assay [1] is reported as 0.24 μg/mL^−1; in assay [2], 0.49 μg/mL^−1; in assay [3] (setting [8]), 0.98 μg/mL^−1; in assay [4] it was 0.98 μg/mL^−1; in assay [5], 0.98 μg/mL^−1; in assay [6] (setting [9]), 0.98 μg/mL^−1. The MIC in assay [7] is reported as 0.49 μg/mL^−1.
